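Exposure lasted 48 hours, with cells grown in 96-well plates and compounds tested at five concentrations. Abbreviation: GI50, concentration required for 50% inhibition of growth. TGI denotes the concentration required for complete inhibition of growth.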
Experiments:
Experiment in all cases: growth of human tumour cells (NCI), 48 h; in the data active = GI50 below about 0.43 µM; inactive = the rest
LOX IMVI melanoma = system: LOX IMVI melanoma
SNB-19 CNS = system: SNB-19 CNS
SF-539 CNS = system: SF-539 CNS
MCF7 breast = system: MCF7 breast
HS 578T breast = system: HS 578T breast
OVCAR-4 ovarian = system: OVCAR-4 ovarian
HOP-62 NSCLC = system: HOP-62 NSCLC
A498 renal = system: A498 renal
PC-3 prostate = system: PC-3 prostate
MALME-3M melanoma = system: MALME-3M melanoma
U251 CNS = system: U251 CNS
T-47D breast = system: T-47D breast
SW-620 colon = system: SW-620 colon
MDA-MB-435 = system: MDA-MB-435
NCI-H460 lung = system: NCI-H460 lung
NCI-H522 lung = system: NCI-H522 lung
SNB-75 CNS = system: SNB-75 CNS
UACC-257 melanoma = system: UACC-257 melanoma
DU-145 prostate = system: DU-145 prostate
HOP-92 NSCLC = system: HOP-92 NSCLC
KM12 colon = system: KM12 colon
OVCAR-3 ovarian = system: OVCAR-3 ovarian
MDA-MB-468 breast = system: MDA-MB-468 breast
RPMI-8226 leukemia = system: RPMI-8226 leukemia
SR leukemia = system: SR leukemia
HCC-2998 colon = system: HCC-2998 colon
SN12C renal = system: SN12C renal
UACC-62 melanoma = system: UACC-62 melanoma
EKVX NSCLC = system: EKVX NSCLC
NCI/ADR-RES ovarian = system: NCI/ADR-RES ovarian
IGROV1 ovarian = system: IGROV1 ovarian
TK-10 renal = system: TK-10 renal
SF-295 CNS = system: SF-295 CNS
786-0 renal = system: 786-0 renal
CAKI-1 renal = system: CAKI-1 renal
HCT-15 colon = system: HCT-15 colon
OVCAR-8 ovarian = system: OVCAR-8 ovarian
BT-549 breast = system: BT-549 breast
SK-MEL-2 melanoma = system: SK-MEL-2 melanoma
SF-268 CNS = system: SF-268 CNS
HL-60(TB) leukemia = system: HL-60(TB) leukemia
HCT-116 colon = system: HCT-116 colon
COLO 205 colon = system: COLO 205 colon
NCI-H23 lung = system: NCI-H23 lung
OVCAR-5 ovarian = system: OVCAR-5 ovarian
A549 NSCLC = system: A549 NSCLC
MOLT-4 leukemia = system: MOLT-4 leukemia
UO-31 renal = system: UO-31 renal
MDA-MB-231 breast = system: MDA-MB-231 breast
HT29 colon = system: HT29 colon
SK-OV-3 ovarian = system: SK-OV-3 ovarian
SK-MEL-5 melanoma = system: SK-MEL-5 melanoma
K-562 leukemia = system: K-562 leukemia
NCI-H226 lung = system: NCI-H226 lung
M14 melanoma = system: M14 melanoma
SK-MEL-28 melanoma = system: SK-MEL-28 melanoma
CCRF-CEM leukemia = system: CCRF-CEM leukemia
ACHN renal = system: ACHN renal

C#CCCCN(CCNc1ccnc2cc(Cl)ccc12)C(=O)CCC(=O)O[C@@H]1O[C@@H]2OC3(C)CC[C@H]4[C@H](C)CC[C@@H]([C@H]1C)[C@@]24OO3
5.82 µM: TGI (MOLT-4 leukemia)
inactive: GI50 (LOX IMVI melanoma) 0.676 µM | GI50 (SNB-19 CNS) 7.16 µM | GI50 (SF-539 CNS) 3.99 µM | GI50 (MCF7 breast) 0.805 µM | GI50 (HS 578T breast) 1.83 µM | GI50 (OVCAR-4 ovarian) 1.39 µM | GI50 (HOP-62 NSCLC) > 11.5 µM | GI50 (A498 renal) > 11.5 µM | GI50 (MALME-3M melanoma) 2.56 µM | GI50 (U251 CNS) 2.73 µM | GI50 (SW-620 colon) 0.643 µM | GI50 (MDA-MB-435) 0.772 µM | GI50 (NCI-H460 lung) 5.09 µM | GI50 (NCI-H522 lung) 0.788 µM | GI50 (SNB-75 CNS) > 11.5 µM | GI50 (UACC-257 melanoma) 2.3 µM | GI50 (DU-145 prostate) 8.95 µM | GI50 (HOP-92 NSCLC) 0.581 µM | GI50 (KM12 colon) 0.572 µM | GI50 (OVCAR-3 ovarian) 0.876 µM | GI50 (MDA-MB-468 breast) 1.74 µM | GI50 (SR leukemia) 0.475 µM | GI50 (HCC-2998 colon) 2.72 µM | GI50 (SN12C renal) 3.06 µM | GI50 (UACC-62 melanoma) 0.878 µM | GI50 (EKVX NSCLC) 1.03 µM | GI50 (NCI/ADR-RES ovarian) 1.83 µM | GI50 (IGROV1 ovarian) 3.01 µM | GI50 (TK-10 renal) 8.12 µM | GI50 (SF-295 CNS) 1.87 µM | GI50 (786-0 renal) 5.67 µM | GI50 (CAKI-1 renal) 8.21 µM | GI50 (OVCAR-8 ovarian) 1.04 µM | GI50 (BT-549 breast) 1.27 µM | GI50 (SK-MEL-2 melanoma) 4.93 µM | GI50 (SF-268 CNS) 7.45 µM | GI50 (HCT-116 colon) 0.554 µM | GI50 (COLO 205 colon) 1.39 µM | GI50 (NCI-H23 lung) 1.08 µM | GI50 (OVCAR-5 ovarian) 0.974 µM | GI50 (A549 NSCLC) 7.37 µM | GI50 (MOLT-4 leukemia) 0.527 µM | GI50 (UO-31 renal) 1.19 µM | GI50 (MDA-MB-231 breast) 9.5 µM | GI50 (HT29 colon) 0.701 µM | GI50 (SK-OV-3 ovarian) > 11.5 µM | GI50 (SK-MEL-5 melanoma) 1.18 µM | GI50 (K-562 leukemia) 0.448 µM | GI50 (NCI-H226 lung) 3.76 µM | GI50 (M14 melanoma) 4.86 µM | GI50 (SK-MEL-28 melanoma) 2.64 µM | GI50 (CCRF-CEM leukemia) 0.697 µM | GI50 (ACHN renal) 2.18 µM
5.49 µM: TGI (MDA-MB-468 breast)
8.98 µM: TGI (SK-MEL-5 melanoma)
active: GI50 (PC-3 prostate) 0.194 µM | GI50 (T-47D breast) 0.402 µM | GI50 (RPMI-8226 leukemia) 0.399 µM | GI50 (HCT-15 colon) 0.337 µM | GI50 (HL-60(TB) leukemia) 0.364 µM
1.82 µM: TGI (HL-60(TB) leukemia)
6.74 µM: TGI (HOP-92 NSCLC)
9.37 µM: TGI (SR leukemia)
> 11.5 µM: TGI (SNB-19 CNS) | TGI (SF-539 CNS) | TGI (MCF7 breast) | TGI (HS 578T breast) | TGI (OVCAR-4 ovarian) | TGI (HOP-62 NSCLC) | TGI (A498 renal) | TGI (PC-3 prostate) | TGI (MALME-3M melanoma) | TGI (U251 CNS) | TGI (T-47D breast) | TGI (SW-620 colon) | TGI (MDA-MB-435) | TGI (NCI-H460 lung) | TGI (NCI-H522 lung) | TGI (SNB-75 CNS) | TGI (UACC-257 melanoma) | TGI (DU-145 prostate) | TGI (KM12 colon) | TGI (OVCAR-3 ovarian) | TGI (RPMI-8226 leukemia) | TGI (HCC-2998 colon) | TGI (SN12C renal) | TGI (UACC-62 melanoma) | TGI (EKVX NSCLC) | TGI (NCI/ADR-RES ovarian) | TGI (IGROV1 ovarian) | TGI (TK-10 renal) | TGI (SF-295 CNS) | TGI (786-0 renal) | TGI (CAKI-1 renal) | TGI (HCT-15 colon) | TGI (OVCAR-8 ovarian) | TGI (BT-549 breast) | TGI (SK-MEL-2 melanoma) | TGI (SF-268 CNS) | TGI (HCT-116 colon) | TGI (COLO 205 colon) | TGI (NCI-H23 lung) | TGI (OVCAR-5 ovarian) | TGI (A549 NSCLC) | TGI (UO-31 renal) | TGI (MDA-MB-231 breast) | TGI (HT29 colon) | TGI (SK-OV-3 ovarian) | TGI (K-562 leukemia) | TGI (NCI-H226 lung) | TGI (M14 melanoma) | TGI (SK-MEL-28 melanoma) | TGI (CCRF-CEM leukemia) | TGI (ACHN renal)
2.82 µM: TGI (LOX IMVI melanoma)
